Data reported in patent US20100158808A1, “Altered Activity of Toll-Like Receptors” (priority 2003, published 2010).
Each block holds one substance with its values, some of them ahead of it.

Key:
[1] = tested on: mice; assay: Experimental shock model (SIRS), D-galactosamine, i.p. injection; assay type: in vivo; conditions: for Survival in shock model: mice, i.p. with D-galactosamine
Description: Experimental shock model. Age- and sex-matched mice were injected with 5 mg of HS, 5 μg of LPS, 5 μg of Limulus anti-LPS factor, 5 mg of chondroitin sulfate, 200 U (−5 mg) heparin, 150 μg of CpG DNA, 1.5 U of elastase, or PBS mixed with 20 mg of D-galactosamine in a total volume of 500 μl of PBS by i.p. injection as previously described (Franks et al. (1991) Infect. Immun. 59:2609). Concentrations of HS and elastase were calculated by weight of lyophilized powder, and the doses used were near the LD50 based on dose-response experiments. In some experiments, the agonist was mixed with 5 or 20 μg of Limulus anti-LPS factor before injection. For some injections, enzymes were boiled at 100° C. for 60 minutes and vortexed vigorously, or preincubated with elastase inhibitor-1 for 4 hours at room temperature and then mixed with D-galactosamine before injection. Mice were monitored every hour for 48 hours and then euthanized.
During sepsis, Gram-negative bacteria shed LPS, which activates TLR4 on cells that then release inflammatory cytokines mediating systemic inflammation and death (Beutler (2000) Curr. Opin. Immunol. 12:20). To determine whether soluble HS can induce a model of systemic inflammatory response syndrome (SIRS) via activation of TLR4 in mice, HS was administered by i.p. injection to TLR4 wild type and mutant mice. This mouse model system has been used to study shock and a sepsis-like syndrome in response to microbial toxins (Galanos et al. (1979) Proc. Natl. Acad. Sci. USA 76:5939). […] Moreover, the observed responses were not due to contamination of HS by LPS, since the HS used was not contaminated with LPS.

[2] = target: T1, TLR4 (Mus musculus, UniProt Q9JHF9+Q9QUK6); assay: NFκB-luciferase reporter assay in HEK 293 cells stably expressing TLR4, MD2 and/or CD14; assay type: cell-based, murine; parameters: expressed in transfected cells; host or cells: HEK 293; conditions: HEK 293 cells lacking TLR4 and MD2 or CD14
T1 sequence (Q9QUK6 26-835): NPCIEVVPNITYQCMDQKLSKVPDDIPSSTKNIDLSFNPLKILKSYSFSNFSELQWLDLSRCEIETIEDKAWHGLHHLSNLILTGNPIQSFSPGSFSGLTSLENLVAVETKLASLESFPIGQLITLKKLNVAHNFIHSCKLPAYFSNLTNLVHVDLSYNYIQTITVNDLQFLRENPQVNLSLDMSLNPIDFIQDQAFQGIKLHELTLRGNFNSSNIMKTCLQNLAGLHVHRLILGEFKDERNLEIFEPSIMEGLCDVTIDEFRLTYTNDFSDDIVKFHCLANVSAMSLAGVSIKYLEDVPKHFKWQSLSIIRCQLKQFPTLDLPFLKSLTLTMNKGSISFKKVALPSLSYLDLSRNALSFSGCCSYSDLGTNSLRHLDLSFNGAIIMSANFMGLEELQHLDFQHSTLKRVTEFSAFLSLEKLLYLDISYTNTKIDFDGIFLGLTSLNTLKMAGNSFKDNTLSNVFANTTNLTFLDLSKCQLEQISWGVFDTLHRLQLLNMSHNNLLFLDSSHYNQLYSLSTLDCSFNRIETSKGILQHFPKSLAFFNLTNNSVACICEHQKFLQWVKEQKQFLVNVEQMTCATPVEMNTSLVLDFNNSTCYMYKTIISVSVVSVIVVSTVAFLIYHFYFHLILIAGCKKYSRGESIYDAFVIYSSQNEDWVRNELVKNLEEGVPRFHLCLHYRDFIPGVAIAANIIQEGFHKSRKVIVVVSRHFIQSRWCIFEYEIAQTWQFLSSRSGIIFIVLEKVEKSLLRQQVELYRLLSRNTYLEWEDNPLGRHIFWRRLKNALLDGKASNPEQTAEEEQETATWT
T1 sequence (Q9JHF9 19-160): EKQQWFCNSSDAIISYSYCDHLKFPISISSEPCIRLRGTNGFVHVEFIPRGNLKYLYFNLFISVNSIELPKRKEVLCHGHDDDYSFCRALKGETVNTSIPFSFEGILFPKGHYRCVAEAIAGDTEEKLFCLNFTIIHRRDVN
Description: Model ECM environment. Tissue culture plates were coated with ECM as follows. PAEC were seeded into 6-well (3×10^5 cells/well), 24-well (5×10^4 cells/well) or 100 mm (2×10^5 cells) fibronectin-coated tissue culture plates (BD Biosciences, San Jose, Calif.) in DMEM (Invitrogen) containing 10% fetal bovine serum supplemented with penicillin and streptomycin and 4% w/v of Dextran 40. The cell cultures were incubated at 37° C. in 5% CO2 humidified atmosphere for seven days and were supplemented with […] on day three and day five. After 7 days, endothelial cells were washed once with phosphate buffered saline (PBS) and lysed by exposure to 0.5% w/v Triton X-100 and 20 mM NH4OH in PBS (pH 7.4) at 37° C. for 20 minutes (Bonifacino, 1998). The wells were then washed 4 times with PBS (pH 7.4) and inspected microscopically to ensure removal of the cells. Plates were used immediately or were stored in PBS (pH 7.4) with […] at 4° C.
HEK 293 cells were stably transfected with the TLR4 and MD2 or CD14 expression plasmids using Superfect (Qiagen, Valencia, Calif.) following the manufacturer's instructions. HEK 293 cells expressing TLR4 and MD2 or CD14 were obtained by culturing the transfected cells with appropriate antibiotic selection medium, and were cloned by limiting dilution in the selection medium. HEK 293 cells expressing TLR4, MD2 and CD14 were generated by transfecting HEK 293 cells that expressed TLR4 and MD2 with the CD14 expression plasmid, and selecting clones using appropriate antibiotic containing medium. Cell lines expressing TLR4 and MD2 and/or CD14 were then maintained in DMEM supplemented with 10% fetal bovine serum and the appropriate selection antibiotics. Control cell lines were transfected with empty expression vectors and incubated in selection conditions as described above. Selected clones were tested for cell surface expression of the TLR4/MD2 complex and CD14 by flow cytometry using monoclonal antibodies specific for the TLR4/MD2 complex or CD14.
NFκB-luciferase reporter assays. Activation of NFκB was measured using a NFκB-luciferase reporter assay. HEK 293 cell lines stably expressing TLR4, MD2 and/or CD14, or control cells were seeded into 24 well tissue culture plates (2×10^5 cells/well) in 1.0 ml DMEM containing 10% fetal bovine serum and penicillin and streptomycin. The cells were allowed to adhere to the culture wells at 37° C. overnight and were then transfected with […] NFκB-firefly-luciferase using Superfect Transfection Reagent (Qiagen). Following transfection, the cells were washed once with phosphate buffered saline and cultured for 24 hours at 37° C. in 1.0 ml DMEM containing 0.5% fetal bovine serum. After various treatments, the culture medium was aspirated and the cells were washed once with PBS. The cells were lysed in […] Passive Lysis Buffer (Promega) with rocking at room temperature for 15 minutes. Renilla- and Firefly-luciferase were assayed simultaneously using the Dual-Luciferase Reporter Assay System (Promega) and a TD-20/20 luminometer (Turner Designs, Sunnyvale, Calif.). Activation of NFκB was reported as a ratio of the firefly luciferase activity to the constitutively expressed Renilla luciferase internal control, and is the mean of triplicate wells.
To determine whether and under what conditions HS stimulates TLR4, various combinations of TLR4, MD2 and CD14, components of the putative TLR4 receptor complex, were stably expressed in HEK 293 cells and the effect of HS on TLR4 signaling in the transfected cells was examined (FIG. 1). The HEK 293 cells expressing receptor components were transiently transfected with a NFκB-firefly luciferase reporter construct along with a Renilla-luciferase internal control reporter construct. […]

[3] = target: T2, TLR4/MD2 complex (Mus musculus, UniProt Q9JHF9+Q9QUK6); assay: Cell surface expression of TLR4/MD2 in HEK/TLR4(+) cells by flow cytometry; assay type: cell-based, murine
T2 construct: expressed in transfected cells; host or cells: HEK 293 clone HEK/TLR4(+)
T2 sequence (Q9QUK6 26-835): T1 sequence (Q9QUK6 26-835)
T2 sequence (Q9JHF9 19-160): T1 sequence (Q9JHF9 19-160)
Description: FIG. 2A is a graph plotting the level of reporter activity in HEK/TLR4(+) cells transfected with NFκB- and control-luciferase reporter plasmids and then stimulated with intact HS or LPS, or with HS or LPS that had been treated with nitrous acid (HNO2) at pH 4.0 or pH 1.5. Controls were treated with PBS vehicle. […] FIG. 2C is a graph showing the effect of PBS, HS, depolymerized HS (nitrous acid, pH 1.5), and recombinant human IL-1α on cell surface expression of TLR4/MD2 in HEK/TLR4(+) cells. Expression of TLR4 on the cell surface was determined by flow cytometry using a monoclonal antibody specific to the TLR4/MD2 complex. Values are the mean of triplicate wells and are representative of three separate experiments.
To determine whether the effect of HS occurred through specific action on TLR4, surface expression of the TLR4/MD2 complex on cells treated with HS was examined. […] Thus, HEK/TLR4(+) cells responded to HS by activating NFκB and mobilizing receptor complexes.

Substance: Boc-Ala-Ala-Ala-NHO-Bz [elastase inhibitor-1]
Reduction of the death rate after elastase injection ([1]; elastase preincubated with elastase inhibitor-1 for 4 hours): 50%

Substance: chondroitin sulfate
Survival in shock model [1]: all but one mouse

Substance: heparin
Survival in shock model [1]: survived

Activation of NFκB-luciferase reporter [2]: activated | Change in surface expression of TLR4/MD2 [3]: did not change
Substance: recombinant human IL-1α: recombinant human IL-1α, activates NFκB via the IL-1 receptor
